Measured values from article PMC11266677, “Vitamin B5 metabolism is essential for vacuolar and mitochondrial functions and drug detoxification in fungi” (Communications Biology, 2024).

How the values were obtained:
[1] = target: T1, Acs1 (acetyl CoA synthetase) (Saccharomyces cerevisiae, UniProt Q01574); experiment: hydroxylamine-coupled acetyl CoA synthetase assay (acethydroxamic acid, OD540); format: biochemical
T1 construct: purified S. cerevisiae acetyl CoA synthetase (Sigma, A1765)

[2] = target: T1, Acs1 (acetyl CoA synthetase); experiment: hydroxylamine-coupled acetyl CoA synthetase assay; […] inhibition at […]; format: biochemical

T1 sequence (Q01574 whole entry): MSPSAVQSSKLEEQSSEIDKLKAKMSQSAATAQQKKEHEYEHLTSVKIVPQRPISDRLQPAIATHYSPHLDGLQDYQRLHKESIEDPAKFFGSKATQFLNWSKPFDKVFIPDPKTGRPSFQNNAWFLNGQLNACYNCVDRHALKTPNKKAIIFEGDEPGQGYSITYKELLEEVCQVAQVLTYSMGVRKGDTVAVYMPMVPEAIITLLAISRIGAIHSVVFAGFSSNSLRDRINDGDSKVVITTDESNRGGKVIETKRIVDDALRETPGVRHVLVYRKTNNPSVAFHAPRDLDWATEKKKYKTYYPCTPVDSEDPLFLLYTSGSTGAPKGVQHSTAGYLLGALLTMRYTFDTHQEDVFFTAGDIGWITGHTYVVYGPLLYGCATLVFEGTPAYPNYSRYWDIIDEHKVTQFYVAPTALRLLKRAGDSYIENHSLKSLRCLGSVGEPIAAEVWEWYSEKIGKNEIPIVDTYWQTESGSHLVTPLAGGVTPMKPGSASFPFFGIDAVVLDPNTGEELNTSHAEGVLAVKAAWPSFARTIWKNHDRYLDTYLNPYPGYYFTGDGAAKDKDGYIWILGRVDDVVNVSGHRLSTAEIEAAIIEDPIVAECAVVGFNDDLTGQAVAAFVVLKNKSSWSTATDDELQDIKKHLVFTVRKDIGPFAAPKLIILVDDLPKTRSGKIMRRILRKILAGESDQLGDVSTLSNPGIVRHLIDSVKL

| SMILES | IC50 [1] | inhibition at 18.8 µM [2] |
| --- | --- | --- |
| NCC(=O)Nc1ccc(-n2nc(C(F)(F)F)cc2-c2ccc3c(ccc4ccccc43)c2)cc1 [AR-12] | ~18 µM |  |
| CC(C)c1ccc(CC(=O)N2CCN(c3ccc(C#N)nn3)CC2)cc1 [PZ-2891] |  | 32.7% |
